Assay: Particle size measurement by dynamic light scattering
Assay type: physicochemical
Conditions: steps (a) to (e) without palmitoyl-L-carnitine chloride
Protocol: The particle size of particles contained in the nonaqueous composition for external use on the skin immediately after preparation was measured by the dynamic light scattering method.
Specifically, the measurement was performed on the number mode using a nanoparticle analysis system (Zetasizer Nano ZSP model manufactured by Malvern Instruments Ltd.).

Q: Which “Particle size of composition containing particles of the surfactant alone” value does the source give for sucrose erucic acid ester here?
A: Its value is “about 2.5 nm”.

From patent US20210361539A1, “NONAQUEOUS COMPOSITION FOR EXTERNAL USE ON SKIN AND METHOD FOR PRODUCING THE SAME” (CHANEL PARFUMS BEAUTE, priority 2017, published 2021)
